Reference: patent publication US20100221763A1, “Specific Acceptors for Transferases to Saccharides and Method for Obtaining and Using Same” (Health Research, Inc, priority 2005, published 2010)
Several values for one entry are separate records, joined by “and”; a condition that tells them apart may be missing. Equal entries are not always repeated. Marks after values point to notes of the source that are not given here.

Tests used:
[1] = tested on: LNCaP α2,3(O)ST; assay: Sialyltransferase assay with LNCaP cell extract; assay type: biochemical, human; details: for LNCaPα2,3(O)ST %: Table III, compound 7.5 mM, 100% = 30100 CPM (3-O-MeGalβ1,4GlcNAcβ1,6(Galβ1,3)GalNAcα-O-Bn); for Sialyltransferase activity (%) LNCaP α2,3(O)ST: Table I, acceptor 7.5 mM, 100% = 30930 CPM (3-O-MeGalβ1,4GlcNAcβ1,6(Galβ1,3)GalNAcα-O-Bn)
Description: The prostate carcinoma cell line, LNCaP, was grown in RPMI 1640 supplemented with 10% fetal bovine serum and antibiotics (penicillin, streptomycin and amphotericin B) under conditions recommended by American Type Culture Collection (Manassas, Va.). The cells were homogenized with 0.1M Tris-Maleate pH6.3 containing 2% Triton X-100 using a Dounce all glass hand-operated homogenizer. The homogenate was centrifuged at 16,000 g for 1 h at 4° C. Protein concentration in supernatant was measured using the BCA assay (Pierce Biotech, Inc., Rockford, Ill.), with BSA as the standard. The supernatant was adjusted to 5 mg protein/ml by adding the necessary amount of extraction buffer and then stored frozen at −20° C. until use. 10 μl aliquot of this extract was used in assays run in duplicate.
(§1) The incubation mixtures run in duplicate contained 0.1M NaCacodylate buffer pH6.0, the acceptor (typically at 7.5 mM, or as indicated in some experiments), CMP-[9 ^3H] NeuAc (typically 0.2 μci; 20 μci/nmol or as indicated in some experiments) and the enzyme in a total volume of 20 μl. The control incubation mixtures contained everything except the acceptor. Incubation was carried out for 2 h at 37° C. The enzymatic transfer of [9-^3H] NeuAc to a typical acceptor was linear for 2 h and less than 30% CMP-[9-^3H] NeuAc was utilized. Chromatography, using either Dowex-1-Formate, Sep-Pak C18 or Biogel P2, was applied to separate radioactive product from un-reacted [9-^3H] NeuAc as described below.
(§2) The radioactive products from neutral allyl and methyl glycosides as well as non-glycosides were measured by fractionation on Dowex-1-Formate (Bio-Rad: AG-1X8; 200-400 mesh; format form) as follows: The incubation mixture was diluted with 1.0 ml water and passed through AG-1-formate column (1.0 ml bed volume in a Pasteur pipet which had been washed with 5 ml of 2M Formic acid followed by 10 ml water). The column was washed twice with 1.0 ml water after the entry of the sample and then eluted with 3.0 ml of 0.1M NaCl. The radioactivity present in water and 0.1M NaCl eluates were measured separately using 3a70 scintillation cocktail (Research Products International, Mount Prospect, Ill.) and a Beckman LS6500 scintillation counter. The CPM values were corrected by subtracting the blank CPM. Any radioactivity present in the water eluate (as noticed in the case of some methylglycosides) was added to the corresponding CPM value of 0.1M NaCl eluate. The radioactive products from sulfated and/or sialylated methylglycosides were also measured by the above procedure, only the elution of the AG-1-Formate column was continued further with 3.0 ml of 0.2M NaCl for achieving a complete elution of the radioactive product, a correction being made as before by subtracting the corresponding blank values.
(§3) The radioactive products from benzylglycosides and monosialylated benzylglycosides were measured by hydrophobic chromatography on Sep-Pak C18 cartridge (Waters, Milford, Mass.) and eluting the product with 3.0 ml methanol (30). The radioactivity was determined by liquid scintillation as above.
(§4) For such work, a Biogel P2 column (Fine Mesh; 1.0×116.0 cm) was used with 0.1M pyridine acetate pH5.4 as the eluent at room temperature. The effluent fractions were monitored for radioactivity and the first peak containing radioactivity was collected, lyophilized to dryness, dissolved in 200 μl of water and stored frozen at −20° C. for thin layer chromatography (TLC) and other experimentation.

[2] = biological target: T1, Rat recombinant α2,3(N)ST (Rattus norvegicus, UniProt Q02734); assay: Sialyltransferase assay with cloned α2,3(N)ST; assay type: biochemical; details: for Cloned Sialyltransferase Activities α2,3(N) ST %: Table III, compound 7.5 mM, 100% = 38140 CPM (Galβ1,4GlcNAcβ1,6(3-O-MeGalβ1,3)GalNAcα-O-Bn); for Sialyltransferase activity (%) Cloned α2,3(N)ST: Table I, acceptor 7.5 mM, 100% = 29520 CPM (Galβ1,4GlcNAcβ-O—Al)
T1 construct: purchased Calbiochem
T1 sequence (Q02734 29-374 limits assumed): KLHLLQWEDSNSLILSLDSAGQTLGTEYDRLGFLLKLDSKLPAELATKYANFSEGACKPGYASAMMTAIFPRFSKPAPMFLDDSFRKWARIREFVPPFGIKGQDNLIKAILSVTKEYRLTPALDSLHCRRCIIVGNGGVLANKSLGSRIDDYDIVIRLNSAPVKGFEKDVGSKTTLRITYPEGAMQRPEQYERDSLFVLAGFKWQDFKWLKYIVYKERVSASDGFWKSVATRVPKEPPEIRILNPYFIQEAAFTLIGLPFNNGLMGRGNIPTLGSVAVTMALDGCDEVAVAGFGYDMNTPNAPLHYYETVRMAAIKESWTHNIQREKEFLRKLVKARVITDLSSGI
Description: (§5) Rat recombinant α2,3(O)ST, α2,3(N)ST and α2,6(N)ST were purchased from Calbiochem and stored at either −20° C. or −70° C. as recommended by the supplier. […] 10 μl aliquots of the diluted enzymes were used in the assays run in duplicate.
as §1, §2, §3, §4

[3] = biological target: T2, Rat recombinant α2,6(N)ST (Rattus norvegicus, UniProt P13721); assay: Sialyltransferase assay with cloned α2,6(N)ST; assay type: biochemical; details: for Cloned Sialyltransferase Activities α2,6(N)ST %: Table III, compound 7.5 mM, 100% = 30440 CPM (Galβ1,4GlcNAcβ1,6(3-O-MeGalβ1,3)GalNAcα-O-Bn); for Sialyltransferase activity (%) Cloned α2,6(N)ST: Table I, acceptor 7.5 mM, 100% = 43500 CPM (Galβ1,4GlcNAcβ-O—Al)
T2 construct: purchased Calbiochem
T2 sequence (P13721 1-403): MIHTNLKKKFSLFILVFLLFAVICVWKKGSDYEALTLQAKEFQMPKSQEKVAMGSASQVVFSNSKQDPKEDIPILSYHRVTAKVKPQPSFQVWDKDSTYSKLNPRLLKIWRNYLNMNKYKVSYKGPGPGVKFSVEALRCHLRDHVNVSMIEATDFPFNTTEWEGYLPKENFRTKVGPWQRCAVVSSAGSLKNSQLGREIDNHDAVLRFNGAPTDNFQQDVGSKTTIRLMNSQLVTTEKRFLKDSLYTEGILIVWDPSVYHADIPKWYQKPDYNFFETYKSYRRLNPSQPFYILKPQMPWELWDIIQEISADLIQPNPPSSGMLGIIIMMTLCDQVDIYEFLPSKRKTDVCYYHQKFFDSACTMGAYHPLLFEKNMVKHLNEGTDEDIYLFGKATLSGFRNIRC
Description: as §5, §1, §2, §3, §4

[4] = biological target: T3, Rat recombinant α2,3(O)ST (Rattus norvegicus, UniProt Q11205); assay: Sialyltransferase assay with cloned α2,3(O)ST; assay type: biochemical; details: for Cloned Sialyltransferase Activities α2,3(O) ST %: Table III, compound 7.5 mM, 100% = 39200 CPM (3-O-MeGalβ1,4GlcNAcβ1,6(Galβ1,3)GalNAcα-O-Bn); for Sialyltransferase activity (%) Cloned α2,3(O)ST: Table I, acceptor 7.5 mM, 100% = 40560 CPM (3-O-MeGalβ1,4GlcNAcβ1,6(Galβ1,3)GalNAcα-O-Bn)
T3 construct: purchased Calbiochem
T3 sequence (Q11205 1-350): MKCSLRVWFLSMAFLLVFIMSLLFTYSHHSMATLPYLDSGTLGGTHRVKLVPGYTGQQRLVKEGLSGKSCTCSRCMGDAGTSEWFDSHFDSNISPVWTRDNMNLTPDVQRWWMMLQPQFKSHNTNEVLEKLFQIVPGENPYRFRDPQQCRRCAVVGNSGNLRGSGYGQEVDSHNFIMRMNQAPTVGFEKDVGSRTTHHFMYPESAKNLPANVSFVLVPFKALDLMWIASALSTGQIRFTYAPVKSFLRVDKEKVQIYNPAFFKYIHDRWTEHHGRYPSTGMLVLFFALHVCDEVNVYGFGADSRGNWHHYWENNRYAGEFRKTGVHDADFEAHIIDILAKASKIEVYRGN
Description: as §5, §1, §2, §3, §4

Cloned Sialyltransferase Activities α2,3(N) ST % [2]	α2,3(N)ST activity compared to Galβ1,4GlcNAcβ1,6(Galβ1,3)GalNAcα-O-Bn (FIG. 3B) ([2]; lowest concentration tested, 0.05 mM)	α2,3(N)ST activity compared to Galβ1,4GlcNAcβ1,6(Galβ1,3)GalNAcα-O-Bn (FIG. 3B) ([2]; maximum concentration tested, 0.25 mM)	Cloned Sialyltransferase Activities α2,6(N)ST % [3]	α2,6(N)ST activity at varying acceptor concentration (FIG. 3A) ([3]; maximum concentration tested, 0.75 mM)	Cloned Sialyltransferase Activities α2,3(O) ST % [4]	Sialyltransferase activity (%) Cloned α2,3(N)ST [2]	Sialyltransferase activity (%) Cloned α2,6(N)ST [3]	Sialyltransferase activity (%) Cloned α2,3(O)ST [4]	Sialyltransferase activity (%) Cloned α2,3(N)ST ([2]; listed as Galβ1,4(6-O-Sulfo)GlcNAcβ1,6(Galβ1,3)GalNAcα-)	SMILES	LNCaPα2,3(O)ST % [1]	Sialyltransferase activity (%) LNCaP α2,3(O)ST [1]
99.8%	four fold	two-fold	12.6%	almost inactive	103.0%					CO[C@@H]1[C@H](O)[C@@H](O)[C@H](O[C@H]2[C@H](O)[C@@H](NC(C)=O)[C@H](OC[C@H]3O[C@H](OCc4ccccc4)[C@H](NC(C)=O)[C@@H](O[C@@H]4O[C@H](CO)[C@H](O)[C@H](O)[C@H]4O)[C@H]3O)O[C@@H]2CO)O[C@@H]1CO [4-O-MeGalβ1,4GlcNAcβ1,6(Galβ1,3)GalNAcα-O-Bn]	97.1%	
100.0^b %			100.0^a %		49.6%	95.3%	97.7%	49.6%		CO[C@H]1[C@@H](O)[C@@H](CO)O[C@@H](O[C@H]2[C@@H](O)[C@@H](CO[C@@H]3O[C@H](CO)[C@@H](O[C@@H]4O[C@H](CO)[C@H](O)[C@H](O)[C@H]4O)[C@H](O)[C@H]3NC(C)=O)O[C@H](OCc3ccccc3)[C@@H]2NC(C)=O)[C@@H]1O [Galβ1,4GlcNAcβ1,6(3-O-MeGalβ1,3)GalNAcα-O-Bn]	3.0%	3.0%
						28.1% and 28.1^21%	30.6^17%	27.2%	28.1%	CO[C@H]1O[C@H](CO[C@@H]2O[C@H](COS(=O)(=O)O)[C@@H](O[C@@H]3O[C@H](CO)[C@H](O)[C@H](O)[C@H]3O)[C@H](O)[C@H]2NC(C)=O)[C@H](O)[C@H](O[C@@H]2O[C@H](CO)[C@H](O)[C@H](O)[C@H]2O)[C@H]1NC(C)=O [Galβ1,4(6-O-Sulfo)GlcNAcβ1,6(Galβ1,3)GalNAcα-O-Me]		14.8%
						100.0^a %	100.0% and 100.0^b %	4.7%		C=CCO[C@@H]1O[C@H](CO)[C@@H](O[C@@H]2O[C@H](CO)[C@H](O)[C@H](O)[C@H]2O)[C@H](O)[C@H]1NC(C)=O [Galβ1,4GlcNAcβ-O—Al]		0.5%
